From ChEMBL document CHEMBL5126519, “Tuberculosis drug discovery: Progression and future interventions in the wake of emerging resistance” (Eur J Med Chem, 2022)
≈ marks a conversion by molar mass, not a printed value.

How the values were obtained:
[1] = system: Mycobacterium tuberculosis; experiment: Antimycobacterial activity against extensively drug-resistant Mycobacterium tuberculosis; type: functional
[2] = system: Mycobacterium tuberculosis; experiment: Antimycobacterial activity against drug-resistant Mycobacterium tuberculosis; type: functional

Structure (SMILES): C[C@@H](O)[C@H]1C(=O)N2C(C(=O)O)=C(SC3CN(C4=NCCS4)C3)[C@H](C)[C@H]12 [TEBIPENEM]
- MIC [1]: 0.3 µM (≈ 0.115 µg/mL)

Structure (SMILES): Cc1cc(/C=C/c2ccc3cc(N(C)C)ccc3[n+]2C)c(C)n1-c1ccccc1.Cc1cc(/C=C/c2ccc3cc(N(C)C)ccc3[n+]2C)c(C)n1-c1ccccc1.O=C(O)c1cc2ccccc2c(Cc2c(O)c(C(=O)O)cc3ccccc23)c1O
- MIC99 [2]: 1.55 µg/mL

Structure (SMILES): O=[N+]([O-])c1cn2c(n1)OC[C@@H](OCc1ccc(OC(F)(F)F)cc1)C2 [PRETOMANID]
- MIC [2]: 0.03 µg/mL (≈ 0.0835 µM)

Structure (SMILES): CCNC(=O)Nc1nc2nc(-c3cnc(C(C)(C)O)nc3)c(F)c([C@H]3CCCO3)c2[nH]1
- MIC [2]: 0.08 µg/mL (≈ 0.186 µM)
